This is an account of results in publication PMC3276683 (Bioorganic & medicinal chemistry, 2012).

SMILES strings stand for the structures. Like-named read-outs stand apart in the source and are kept apart here.

One assay relates to Leishmania donovani. The conditions noted are these: cited from earlier work.
Assay [1] concerns American Trypanosoma cruzi blood trypomastigotes. The conditions noted are these: in words; cited from earlier work.
The subject of assay [2] is Plasmodium falciparum (strain K1, IEF stage). In kind it is cell-based. Conditions: L6 IC50 versus P. falciparum IC50.
The test system of assay [3] is Trypanosoma brucei rhodesiense (strain STIB 900, trypomastigote stage). The assay can be described thus: Growth inhibition of T. b. rhodesiense STIB900 trypomastigote forms. In kind it is cell-based.

The IC50 is the concentration that gives 50% inhibition. Turning to `CCCCCCc1c(OC)cc(CCCCC)oc1=O` [compound 10], in the assay on Leishmania donovani, the IC50 result is listed as “similarly active”.

For `COc1cc(/C=C/c2ccc(OC)c(OC)c2)oc(=O)c1` [compound 3, 6-[2-(3,4-Dimethoxyphenyl)ethenyl]-4-methoxy-2H-pyran-2-one], in assay [1], the “activity against T. cruzi blood trypomastigotes” value is “weak activity”.

For `COC1=CC(=O)O[C@]2(/C=C/c3ccc(C(C)(C)C)cc3)[C@H]1[C@H](c1ccc(C(C)(C)C)cc1)[C@H]2c1cc(OC)cc(=O)o1` (racemic) [compound 33, 12,12′-Di-tert-butyl-aniba-dimer-A], the “SI Pf. (selectivity index for Plasmodium falciparum against L6)” value in assay [2] is recorded as approximately 80.

Regarding `Nc1nc(N)nc(Nc2ccc([As]3SCC(CO)S3)cc2)n1` (centres unmarked) [melarsoprol], the IC50 in assay [3] (RHODESIENSE|STIB900) worked out at 4 ng/mL; in assay [3] (RHODESIENSE|STIB900, read-out: T.b.rhod. IC50), 10 nM.
